Assay [1] concerns active local anaphylactic reaction. Put plainly: Effect influencing the active local anaphylactic reaction on rat. The format is in vivo, rat (female OFA). How it is done:
1) The effect influencing the active local anaphylactic reaction was measured according to the method of M. Koltay [Arch. Allergy App. Immun. 71, 181 (1983)].
Female OFA rats weighing 160 to 180 g each were sensitized by bovine serum albumin (BSA) adsorbed to 50 μg of Al(OH)3 gel together with the simultaneous administration of Bordatella pertussis vaccine.
The anaphylactic reaction was elicited by injecting 100 μg of BSA into the right hind paw plant in the 14th day.
The measurements were carried out before and 30 minutes after eliciting the reaction. The animals were orally treated with the compound to be tested 1 hour before the injection of BSA. The results were expressed as percentage inhibition compared to the control group (average %±S.E.M.).

For assay [2], the system named is dextran-induced rat paw edema. Put plainly: Dextran-induced rat paw edema test. Format: in vivo. The settings on record: for Percentage of inhibition: 50 mg/kg (p.o.). How it is done: 3) Dextran-induced rat paw edema test The method of S. Gourvaisier and R. Ducrot [Arch. Int. Pharmacodyn. Ther. 102, 33 (1955)] was employed. The method described for the carrageenin edema test was followed, except that the measurements were carried out 30, 60, 90, 120 and 180 minutes after induction of the inflammation.

The subject of assay [3] is histamine-induced constriction of isolated tracheal smooth muscle of guinea pig. Put plainly: Inhibition of the histamine-induced constriction of isolated tracheal smooth muscle of guinea pig. The settings on record: Cavia porcellus, 0.25 h, isolated guinea pig trachea, read-out: Inhibition of the histamine-induced constriction of isolated tracheal smooth muscle of guinea pig pd'2 (converted). The procedure: I Study on the Effects Against Spasmogenic Mediators [modified method of J. C. […] The investigation on isolated organs were carried out as follows. OHF Lt/R9 guinea pigs of both sexes weighing 300 to 400 g each were anaesthetized by pentobarbital. Their trachea was removed and sectioned in the opposite side to the site of smooth muscle in longitudinal direction. Subsequently, a strip-like preparation was obtained by […] cutting. […] A rest load of 0.5 g was used. Several washings were carried out during the incubation period of 30 minutes. The change in the tension of the tracheal smooth muscle was followed by using an isometric Grass FT-03 type tensiometer sensor device. A washing was made following the cumulative dose series of the given mediator (e.g. histamine). After reaching the base line, by 15 minutes after administration of the given concentration of the inhibitory (antiasthmatic) substance to be tested, the next cumulative dose series of the mediator was administered. In the case of an inhibitory action, the strength of effect, following the second dose series of the mediator, was […] in comparison to that of the first (control) series. For characterization of strength of the competitive antagonistic effect the pA2 value was determined according to the method of […] A pd'2 value was calculated [J. M. Van Rossum: Arch. Int.

In assay [4] the test system is carrageenin-induced rat paw edema. Put plainly: Carrageenin-induced rat paw edema test. Format: in vivo, rat (female CFY). Conditions: for change in vivo at 50 mg/kg: Rattus norvegicus, po, 50 mg/kg (p.o.), read-out: Percentage of the protective effect; for Protective effect %: oral dose 20 mg/kg (Naproxen). How it is done:
Proc. Soc. Exp. Med. 111, 544 (1962)]. Female CFY rats weighing 100 to 120 g each were used after starvation for 24 hours. The inflammation was induced by injecting 0.1 ml of 1% carrageenin solution into the right hind paw plant. The severity of inflammation was determined by using an Ugo-Basile type plethysmometer. The measurement was carried out before and 1.5, 3 and 4.5 hours after induction of the inflammation. The animals were orally treated with the substance to be tested 1 hour before administration of carrageenin. The effect was expressed as percentage inhibition related to the control group.
On the technique in general: In the carrageenan paw model, swelling and tenderness develop within hours.

Where a name gives a salt, the structure may show the parent alone. Read-outs that look alike come from different tables or passages of the source.

The text below walks through data of patent US5179089A, “Isoquinoline compounds, compositions and use” (Chinoin Gyogyszer es Vegyeszeti Termekek Gyara Rt., priority 1990, dated 1993).

`C[C@@H]1C[C@H]2[C@@H]3CCC4=CC(=O)C=C[C@]4(C)[C@@]3(F)[C@@H](O)C[C@]2(C)[C@@]1(O)C(=O)CO` [Dexamethasone, dexamethasone, reference compound]: the “Protective effect % in the 30th minute” value in assay [1] (oral dose 0.5 mg/kg (Dexamethasone)) was 45.5%. The Protective effect % in assay [2] (oral dose 0.5 mg/kg (dexamethasone), 30 minutes) is on record as 42.7%; in assay [2] (oral dose 0.5 mg/kg (dexamethasone), 60 minutes) it was 36.8%; in assay [2] (oral dose 0.5 mg/kg (dexamethasone), 90 minutes), 51.1%; in assay [2] (oral dose 0.5 mg/kg (dexamethasone), 120 minutes) it was 52.1%; in assay [2] (oral dose 0.5 mg/kg (dexamethasone), 180 minutes), 45.5%.

As for `N#CC(SCC(O)CN1CCCCC1)=C1NCCc2ccccc21` (centres unmarked) [Example 14, 2-(1,2,3,4-tetrahydro-1-isoquinolinylidene)-2-[2-hydroxy-3-(1-piperidinyl)propyl]mercaptoacetonitrile], in assay [3], the IC50 is 26.3 µM. Besides, in assay [1] (oral dose of 50 mg/kg, 30th minute after induction), the “Percentage of inhibition of the active local anaphylactic reaction” value is -44.1%. Moreover, the values for the change in vivo at 50 mg/kg in assay [4] (1.5 hours), in assay [4] (3 hours) and in assay [4] (4.5 hours) were -20.9%, -20% and -20%, respectively.

Take `COc1cc2c(cc1OC)C(=C(C#N)SCC(O)CNC1CCCCC1)NCC2` (centres unmarked) [Example 10, 2-(6,7-dimethoxy-1,2,3,4-tetrahydro-1-isoquinolinylidene)-2-(3-cyclohexylamino-2-hydroxypropyl)mercaptoacetonitrile hydrochloride]: the IC50 in assay [3] was 105 µM. Moreover, the change in vivo at 50 mg/kg is -14.8% in assay [4] (1.5 hours), -13% in assay [4] (3 hours) and -7.2% in assay [4] (4.5 hours). Further, the Percentage of inhibition is -25% in assay [2] (30 minutes); -24% in assay [2] (60 minutes); -25% in assay [2] (90 minutes); -27% in assay [2] (120 minutes); -50% in assay [2] (180 minutes).

Take `COc1cc2c(cc1OC)C(=C(C#N)SCC(O)CN1CCCC1)NCC2` (centres unmarked) [Example 12, 2-(6,7-dimethoxy-1,2,3,4-tetrahydro-1-isoquinolinylidene)-2-[2-hydroxy-3-(1-pyrrolidinyl)propyl]mercaptoacetonitrile hydrochloride hemihydrate]: in assay [3], the IC50 is 15.5 µM. For the same compound, the change in vivo at 50 mg/kg is -27.2% in assay [4] (1.5 hours), -18.9% in assay [4] (3 hours) and -17.6% in assay [4] (4.5 hours). Moreover, the Percentage of inhibition is -20.2% in assay [2] (30 minutes); -15.6% in assay [2] (60 minutes); -14.7% in assay [2] (90 minutes); -14.6% in assay [2] (120 minutes); -12.6% in assay [2] (180 minutes).

Take `NC1=NN(c2cccc(C(F)(F)F)c2)CC1` [BW 755C, reference compound]: the “Protective effect % in the 30th minute” value in assay [1] (oral dose 50 mg/kg (BW 755C)) was found to be 52.9%. Moreover, the Protective effect % was 15.4% in assay [2] (oral dose 50 mg/kg (BW-755C), 30 minutes); 12.3% in assay [2] (oral dose 50 mg/kg (BW-755C), 60 minutes); 17.2% in assay [2] (oral dose 50 mg/kg (BW-755C), 90 minutes); 7.9% in assay [2] (oral dose 50 mg/kg (BW-755C), 120 minutes); 11.3% in assay [2] (oral dose 50 mg/kg (BW-755C), 180 minutes).

For `COc1ccc2cc([C@H](C)C(=O)O)ccc2c1` [Naproxen, reference compound], the “Protective effect % in the 30th minute” value in assay [1] (oral dose 30 mg/kg (Naproxen)) is 2.2%. Further, the Protective effect % in assay [4] (1.5 hours) worked out at 33.2%; in assay [4] (3 hours), 44.3%; in assay [4] (4.5 hours), 40.4%; in assay [2] (oral dose 20 mg/kg (Naproxen), 30 minutes) it was 16.9%; in assay [2] (oral dose 20 mg/kg (Naproxen), 60 minutes), 20.1%; in assay [2] (oral dose 20 mg/kg (Naproxen), 90 minutes), 18.9%. Also, the Protective effect % in assay [2] (oral dose 20 mg/kg (Naproxen), 120 minutes) stood at 23.3%; in assay [2] (oral dose 20 mg/kg (Naproxen), 180 minutes) it was 21.6%.
